Reference: paper PMC10298626 (International Journal of Molecular Sciences, 2023)
Marks after values point to notes of the source that are not given here.

Legend:
acetylcholinesterase = biological target: acetylcholinesterase; design: method as in PMID 8823504, PMID 7649881, PMID 9535168; conditions: read-out: IC50 against acetylcholinesterase; cited from earlier work
in vitro = assay type: cell-based; conditions: mouse, RAW264.7 cells, then LPS (500 ng/mL) 20 h, read-out: Cell viability, Average (%); for viability at 22 h, 20 μM: 20 μM for 2 h; for viability at 22 h, 40 μM: 40 μM for 2 h; for viability at 22 h, 80 μM: 80 μM for 2 h
Procedure: To investigate the anti-inflammatory activity of coumarin derivatives, cell viability was analyzed by treating RAW264.7 cells with 23 types of coumarin derivatives at concentrations of 20, 40, and 80 μM for 2 h and with LPS for 20 h.
Mouse macrophage RAW264.7 cells were purchased from the Korea Cell Line Bank (Seoul, Republic of Korea) and cultured in Dulbecco’s Modified Eagle Medium (Corning, NY, USA) containing 10% fetal bovine serum and 1% penicillin/streptomycin at 37 °C and 5% CO2. The medium was changed every 2 days and subcultured when the cells grew > 80%.
EZ-Cytox cell viability assay kit (Dogen, Suwon, Republic of Korea) was used to measure cell viability according to the manufacturer’s instructions. RAW264.7 cells were seeded into a 96-well plate (1 × 10^5 cells/well) and treated with coumarin derivatives at concentrations of 20, 40, and 80 μM. After 2 h, the cells were treated with LPS (500 ng/mL) and cultured for 24 h in a 37 °C, 5% CO2 incubator. The culture supernatant was treated with 10% EZ-Cytox reagent, and a microplate reader was used to measure the absorbance at 450 nm.

[1] = test system: LPS-stimulated RAW264.7 cells; experiment: NO production (Griess reagent) in LPS-stimulated RAW264.7 cells; assay type: cell-based, Mouse; conditions: for NO production, Average / NO production, Average (μM): then LPS (500 ng/mL) 20 h, LPS alone 25.9, control 3.1; for Anti-inflammatory effect (inhibition of NO secretion), in words: 20, 40, and 80 μM, compared with LPS-only treatment
Procedure: A high concentration of NO promotes the synthesis of inflammatory mediators, leading to an inflammatory response, and has been reported to be a cause of various immune diseases. Therefore, this study was conducted to investigate the effect of coumarin derivatives on the production of NO induced by LPS stimulation in RAW264.7 cells. The cells were treated with coumarin derivatives at concentrations of 20, 40, and 80 μM for 2 h. Then, the cells were treated with LPS. After 20 h, the culture supernatant was recovered, and the amount of NO was measured. […] The anti-inflammatory activity of these derivatives depended on the position of the substituted group rather than the electron density of the substituted group.
The Griess reagent was used to measure NO production. RAW264.7 cells were seeded into a 96-well plate and cultured for 24 h. The cells were treated with 20, 40, and 80 μM of coumarin derivatives, cultured for 2 h, and then cultured with LPS (500 ng/mL) for 20 h. The same amount of cell supernatant and Griess reagent were used for the reaction, and absorbance was measured at 540 nm.

[2] = test system: LPS-stimulated RAW264.7 cells; experiment: as above; assay type: cell-based, Mouse; conditions: Dexamethasone (100 μM) treated for 2 h and LPS treated for 20 h; LPS alone 25.9, control 3.1

Row | Structure (SMILES) | IC50 (acetylcholinesterase) | viability at 22 h, 20 μM (in vitro) | viability at 22 h, 40 μM (in vitro) | viability at 22 h, 80 μM (in vitro) | NO production, Average ([1]; 20 μM for 2 h) | NO production, Average ([1]; 40 μM for 2 h) | NO production, Average (μM) ([1]; 80 μM for 2 h) | Anti-inflammatory effect (inhibition of NO secretion), in words [1] | NO production, Average ([1]; 80 μM for 2 h) | NO production, Average (μM) [2]
1 | COc1ccc(-c2cc3c(c(=O)o2)C[C@]2(O)[C@@]4(C)C(=O)C=CC(C)(C)[C@]4(O)CC[C@@]2(C)O3)cc1OC [Arisugacin A] | 1 nM | – | – | – | – | – | – | – | – | –
2 | COc1ccc(-c2cc3c(c(=O)o2)C[C@]2(O)[C@@]4(C)C(=O)C=CC(C)(C)[C@]4(O)CC[C@@]2(C)O3)cc1 [Arisugacin B] | 26 nM | – | – | – | – | – | – | – | – | –
3 | N#CC1=C(N)Oc2c(c(=O)oc3ccccc23)C1c1cccc(Br)c1 (stereo not drawn) [Coumarin derivative 19] | – | 117% | 119% | 120% | 27.07 µM | 17.76 µM | 10.05 *** μM | inhibited NO secretion in a concentration-dependent manner | – | –
4 | N#CC1=C(N)Oc2c(c(=O)oc3ccccc23)C1c1ccc(Br)cc1 (stereo not drawn) [Coumarin derivative 20] | – | 114% | 124% | 135% | 31.89 µM | 30.12 µM | 19.52 ** μM | – | – | –
5 | N#CC1=C(N)Oc2c(c(=O)oc3ccccc23)C1c1cccc(C#N)c1 (stereo not drawn) [Coumarin derivative 21] | – | 131% | 122% | 102% | 28.68 µM | 22.73 µM | 11.97 *** μM | weak anti-inflammatory effects | – | –
6 | N#CC1=C(N)Oc2c(c(=O)oc3ccccc23)C1c1ccc(C#N)cc1 (stereo not drawn) [Coumarin derivative 22] | – | 120% | 122% | 114% | 31.41 µM | 28.84 µM | – | weak anti-inflammatory effects at high concentrations | 22.89 µM | –
7 | N#CC1=C(N)Oc2c(c(=O)oc3ccccc23)C1c1ccccc1 (stereo not drawn) [Coumarin derivative 23] | – | 119% | 118% | 117% | 30.77 µM | 29.80 µM | – | – | 27.39 µM | –
8 | C[C@@H]1C[C@H]2[C@@H]3CCC4=CC(=O)C=C[C@]4(C)[C@@]3(F)[C@@H](O)C[C@]2(C)[C@@]1(O)C(=O)CO [Dexamethasone] | – | – | – | – | – | – | – | – | – | 6.5 ^# μM
